Measurements published in patent US20040176361A1, “Fused heterocyclic compound and medicinal use thereof” (priority 2001, published 2004).
Where a name gives a salt, the structure may show the parent alone.

Columns and labels:
[1] = Stability test in 0.1 mol/L aqueous citric acid solution (HPLC residual ratio); assay type: physicochemical; settings: 5 mg in 1 ml 0.1 mol/L aqueous citric acid, room temperature
Experimental: Each test compound (5 mg) was dissolved in 0.1 mol/L aqueous citric acid solution (1 ml), and the residual ratio of each compound was measured by HPLC under shading or no shading at room temperature one day and 8 days later. The residual ratio was calculated by comparing the area of HPLC immediately after dissolution of each compound with the area of HPLC one day or 8 days later.
column CAPCELPAK UG120 (C18)(Shiseido Co., Ltd.)
mobile phase 50 mmol/L aqueous sodium perchlorate solution (pH
detection wavelength 254 nm

[2] = molecular target: adrenalin α1 receptor; test: Affinity for adrenalin α1 receptor; 3H-prazosin binding; settings: rat brain crude synapse membrane, 25° C. 30 min
Experimental: Preparation of crude synapse membrane and binding experiment were performed according to European Journal of Pharmacology, vol. 55, page 323 (1979). Crude synapse membranes were prepared from cryopreserved rat brain tissues, and a membrane sample and 3H-prazosin were incubated in the presence of a test compound at 25° C. for 30 min. […] The amount of non-specific binding was determined in the presence of 1 μM prazosin. The 50% suppression concentration (IC50) of the test compound was calculated from nonlinear regression, and the inhibition constant (Ki value) was determined.

[3] = molecular target: Recombinant human PARP (Homo sapiens, UniProt P09874); test: PARP enzyme activity inhibitory action; settings: for IC50: PARP inhibitory activity IC50 (nM), 3H-NAD, activated DNA, 25° C. 15 min
Chain of Recombinant human PARP (P09874 whole entry): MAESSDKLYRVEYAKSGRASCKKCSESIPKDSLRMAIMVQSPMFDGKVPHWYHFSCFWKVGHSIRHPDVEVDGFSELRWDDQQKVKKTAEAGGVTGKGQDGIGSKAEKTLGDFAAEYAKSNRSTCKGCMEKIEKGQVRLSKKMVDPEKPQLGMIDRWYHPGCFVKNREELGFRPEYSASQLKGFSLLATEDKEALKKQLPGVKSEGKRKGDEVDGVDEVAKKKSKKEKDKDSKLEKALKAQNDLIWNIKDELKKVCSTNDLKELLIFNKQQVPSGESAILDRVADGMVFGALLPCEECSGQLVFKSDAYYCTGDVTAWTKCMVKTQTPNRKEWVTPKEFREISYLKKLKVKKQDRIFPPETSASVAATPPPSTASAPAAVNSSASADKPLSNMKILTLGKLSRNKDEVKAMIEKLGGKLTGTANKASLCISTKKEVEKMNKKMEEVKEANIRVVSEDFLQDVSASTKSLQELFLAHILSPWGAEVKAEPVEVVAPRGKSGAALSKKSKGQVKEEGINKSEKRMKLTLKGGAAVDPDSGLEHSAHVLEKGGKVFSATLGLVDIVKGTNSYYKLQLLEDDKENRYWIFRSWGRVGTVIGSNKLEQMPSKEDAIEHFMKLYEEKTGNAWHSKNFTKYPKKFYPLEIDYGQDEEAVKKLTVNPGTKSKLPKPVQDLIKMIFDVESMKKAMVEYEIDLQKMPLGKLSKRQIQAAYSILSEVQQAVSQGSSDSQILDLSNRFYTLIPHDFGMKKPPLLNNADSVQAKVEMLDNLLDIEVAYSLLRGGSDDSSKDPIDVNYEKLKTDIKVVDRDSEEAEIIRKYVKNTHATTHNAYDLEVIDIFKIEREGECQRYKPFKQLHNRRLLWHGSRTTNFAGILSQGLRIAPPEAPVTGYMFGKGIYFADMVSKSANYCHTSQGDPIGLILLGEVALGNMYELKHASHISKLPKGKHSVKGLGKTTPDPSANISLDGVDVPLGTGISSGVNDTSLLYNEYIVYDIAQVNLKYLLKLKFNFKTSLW
Experimental: After incubation at 25° C. for 15 min., the reaction was quenched with 20% trichloroacetic acid, and the resulting acid insoluble fraction was adsorbed on a GF/B filter. The filter was washed several times with 5% trichloroacetic acid, and the radiation dose on the filter was measured by liquid scintillation counter.

[4] = system: P388D1 cells; test: Hydrogen peroxide (H2O2) induced cytotoxicity suppressive action; assay type: cell-based; settings: Mus musculus, H2O2 (2 mM), 4 hr, LDH activity, read-out: Cell death suppressive action IC50
Experimental: P388D1 cells cultured to confluence in a 25 cm^2 flask were sown in 96-well plate at a density of […]. The test compound was added, and the cells were incubated for 15 min (37° C.), after which H2O2 (2 mM) was added, and the cells were incubated for 4 hr. After the completion of the incubation, the culture supernatant was recovered, and the LDH activity, which is an index of cytotoxicity, was measured using an LDH-cytotoxicity test kit (Wako Pure Chemical Industries, Ltd.).

| Ki [2] [µM] | IC50 ([3]; average of 2 measurements) [nM] | SMILES | residual ratio (%) under shading 1 day later [1] | residual ratio (%) under shading 8 days later [1] | IC50 ([3]; average of 3 measurements) [nM] | PARP inhibitory activity (in words) ([3]; comparison drawn from Table 1) | IC50 [4] [µM] | residual ratio (%) without shading 1 day later [1] | residual ratio (%) without shading 8 days later [1] |
| --- | --- | --- | --- | --- | --- | --- | --- | --- | --- |
| > 100 |  | CN1CCN(c2cc3ccccc3c(=O)[nH]2)C[C@H]1CO [Example 156, (S)-3-(3-hydroxymethyl-4-methylpiperazin-1-yl)-2H-isoquinolin-1-one] |  |  | 35 |  | 0.23 |  |  |
|  |  | Cc1cccc2c(=O)[nH]c(C3CCN(C)CC3)nc12 [Example 121, 2-(1-methylpiperidin-4-yl)-8-methyl-3H-quinazolin-4-one] | ≈100% | ≈100% | 37 |  | 0.24 |  |  |
|  |  | CN1CCC(c2cc3c(O)cccc3c(=O)[nH]2)CC1 [Example 108, 5-hydroxy-3-(1-methylpiperidin-4-yl)-2H-isoquinolin-1-one] | ≈100% | ≈100% | 12 |  | 0.124 | ≈100% | ≈100% |
| > 100 |  | Cc1cccc2c(=O)[nH]c(N3CCN(C)[C@H](CO)C3)cc12 [Example 212, (S)-3-(3-hydroxymethyl-4-methylpiperazin-1-yl)-5-methyl-2H-isoquinolin-1-one] |  |  | 23 |  | 0.07 |  |  |
|  |  | Cc1cccc2c(=O)[nH]c(C3CCN(C)CC3)cc12 [Example 178, 5-methyl-3-(1-methylpiperidin-4-yl)-2H-isoquinolin-1-one] |  |  | 23 |  | 0.09 |  |  |
|  | 34 | Cc1cccc2c(=O)[nH]c(N3CCC(N(C)C)CC3)cc12 [Example 12, 5-methyl-3-(4-dimethylaminopiperidin-1-yl)-2H-isoquinolin-1-one] |  |  | 37 |  | 0.11 |  |  |
|  |  | CN1CCC(c2cc3ccccc3c(=O)[nH]2)CC1 [Example 82, 3-(1-methylpiperidin-4-yl)-2H-isoquinolin-1-one ⅕ water adduct] | ≈100% | ≈100% | 34 |  | 0.19 | ≈100% | ≈100% |
|  |  | CN(C)CCCc1cc2c(O)cccc2c(=O)[nH]1 [Example 186, 5-hydroxy-3-(3-dimethylaminopropyl)-2H-isoquinolin-1-one hydrochloride] |  |  | 14 |  | 0.13 |  |  |

| SMILES | Ki [2] [µM] | IC50 ([3]; average of 2 measurements) [nM] | residual ratio (%) under shading 1 day later [1] | residual ratio (%) under shading 8 days later [1] | IC50 ([3]; average of 3 measurements) [nM] | PARP inhibitory activity (in words) ([3]; comparison drawn from Table 1) | IC50 [4] [µM] | residual ratio (%) without shading 1 day later [1] | residual ratio (%) without shading 8 days later [1] |
| --- | --- | --- | --- | --- | --- | --- | --- | --- | --- |
| CN1CCN(c2cc3ccccc3c(=O)[nH]2)CC1 [Example Y-3011, reference compound] | 4 |  | 76% | 32% | 50 | most superior PARP inhibitory activity |  |  |  |
